Experimental data: patent US20100129310A1, “STABILIZED DESLORATADINE COMPOSITION” (priority 2005, published 2010)

Assay: Compatibility of desloratadine with excipient materials, N-formyl desloratadine by HPLC
Assay type: physicochemical
Procedure: Compatibility of desloratadine with various excipient materials was determined by mixing the drug and an excipient, then subjecting the mixture to direct exposure for 14 days at 40° C. and 75% relative humidity. The analytical results for the presence of N-formyl desloratadine in the samples (as determined by HPLC) were as tabulated below, where ratios are expressed on a weight basis. Desloratadine and polacrilin resin (AMBERLITE IRP64) were dispersed in water and stirred for 2 hours, isolated by filtration, and then dried at 60° C. until the loss on drying was not more than 10% w/w when tested using an infrared moisture balance at 105° C. Where citric acid was used, the quantity of citric acid was selected to adjust the pH of the dispersion to about 6.5. Where lactose was used, the quantity of lactose is 6 times the weight of other materials, and the lactose is dry mixed with the desloratadine or dried desloratadine-resin mixture.

Clc1ccc2c(c1)CCc1cccnc1C2=C1CCNCC1 [Desloratadine, 8-chloro-6,11-dihydro-11-(4-piperidinylidene)-5H-benzo[5,6]-cyclohepta[1,2-b]pyridine]
% N-Formyl DCL Initial (Initial): Nil
% N-Formyl DCL After exposure (direct exposure for 14 days at 40° C. and 75% relative humidity): Nil
